Among the data in PubChem BioAssay (NCI) are TGI values, retold here.

Some test systems named below: OVCAR-8 ovarian; SW-620 colon; NCI/ADR-RES ovarian; K-562 leukemia; MALME-3M melanoma; OVCAR-3 ovarian; MOLT-4 leukemia; HOP-92 NSCLC; SK-MEL-2 melanoma; SK-MEL-28 melanoma; T-47D breast; 786-0 renal; HOP-62 NSCLC; BT-549 breast; OVCAR-5 ovarian; HL-60(TB) leukemia; SF-539 CNS; NCI-H226 lung; LOX IMVI melanoma; IGROV1 ovarian.
What all share (assay): NCI tumour cell line growth inhibition, 48 h

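Briefly, cells in 96-well plates were exposed to five compound concentrations for 48 h, and endpoints were estimated by linear interpolation. The concentration for full growth arrest is given as TGI.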

As for `Cc1ccc(S(=O)(=O)N/N=C2\CCCCCCCCCCC2CN(C)C)cc1` (stereo not given), the TGI was 30.7 µM in the assay on OVCAR-8 ovarian; 31.8 µM with SW-620 colon; 29.3 µM with NCI/ADR-RES ovarian; 56.5 µM in the assay with K-562 leukemia; 30.9 µM in the assay on MALME-3M melanoma; 32.9 µM with OVCAR-3 ovarian. Besides, the TGI in the assay on MOLT-4 leukemia is over 100 µM; in the assay on HOP-92 NSCLC, 24.7 µM; in the assay with SK-MEL-2 melanoma, 22.8 µM; in the assay on SK-MEL-28 melanoma, 28.2 µM; in the assay with T-47D breast, 30.2 µM; with 786-0 renal, 29.9 µM. In addition, the TGI stood at 33.8 µM in the assay with HOP-62 NSCLC; 32.1 µM in the assay on BT-549 breast; 30.9 µM with OVCAR-5 ovarian; 97.5 µM in the assay with HL-60(TB) leukemia; 31.6 µM in the assay on SF-539 CNS; 35.2 µM in the assay on NCI-H226 lung. Further, the figures for the TGI in the assay on LOX IMVI melanoma and with IGROV1 ovarian were 31.5 µM and 30.7 µM, respectively.
On to `Cc1ccc(S(=O)(=O)N/N=C2\CCC3(O)CC2(C)CCC2C3CC2(C)C)cc1` (stereo not given), for which the TGI with OVCAR-8 ovarian, in the assay on SW-620 colon, with NCI/ADR-RES ovarian, in the assay with K-562 leukemia, with MALME-3M melanoma and with OVCAR-3 ovarian was over 100 µM in each case. In addition, the TGI in the assay on MOLT-4 leukemia was over 100 µM; in the assay on HOP-92 NSCLC, over 100 µM; in the assay with SK-MEL-2 melanoma, 87.1 µM; in the assay on SK-MEL-28 melanoma, over 100 µM; in the assay on T-47D breast, over 100 µM; in the assay with 786-0 renal it was over 100 µM. Further, the TGI in the assay on HOP-62 NSCLC is over 100 µM; in the assay with BT-549 breast, over 100 µM; in the assay with OVCAR-5 ovarian, over 100 µM; with HL-60(TB) leukemia, over 100 µM; in the assay with SF-539 CNS it was over 100 µM; in the assay on NCI-H226 lung, 89.5 µM. Further, the TGI in the assay on LOX IMVI melanoma and with IGROV1 ovarian was over 100 µM throughout.
As to `COC(=O)c1cc(O)c(O)c(O)c1-c1c(O)c(O)c(O)c(SC[C@H](NC(=O)OCc2ccccc2)C(=O)OCc2ccccc2)c1C(=O)OC`, the TGI was 52.7 µM in the assay with OVCAR-8 ovarian; 62.8 µM in the assay on SW-620 colon; over 100 µM in the assay with NCI/ADR-RES ovarian; 70.2 µM with K-562 leukemia; over 100 µM in the assay with MALME-3M melanoma; over 100 µM in the assay on OVCAR-3 ovarian. Further, the TGI is 43.4 µM with MOLT-4 leukemia; over 100 µM with HOP-92 NSCLC; 52.9 µM with SK-MEL-2 melanoma; over 100 µM in the assay on SK-MEL-28 melanoma; over 100 µM with T-47D breast; 49.6 µM with 786-0 renal. The TGI in the assay with HOP-62 NSCLC is over 100 µM; in the assay on BT-549 breast, over 100 µM; in the assay with OVCAR-5 ovarian, over 100 µM; in the assay with HL-60(TB) leukemia, 39.8 µM; with SF-539 CNS it was 73 µM; in the assay with NCI-H226 lung, 48.2 µM. The TGI with LOX IMVI melanoma turned out to be 49.4 µM; with IGROV1 ovarian, 84.2 µM.
`CC(NC1=CC(=O)c2cccnc2C1=O)C(O)c1ccccc1` (stereo not given): the TGI in the assay with OVCAR-8 ovarian came to 17.6 µM; in the assay on SW-620 colon, 3.89 µM; in the assay with NCI/ADR-RES ovarian it was 24.2 µM; with K-562 leukemia, 5.93 µM; in the assay with MALME-3M melanoma, 2.94 µM; in the assay with OVCAR-3 ovarian, 6 µM. Moreover, the TGI was 22.4 µM in the assay on MOLT-4 leukemia; 24.5 µM in the assay on HOP-92 NSCLC; 4.48 µM in the assay on SK-MEL-2 melanoma; 3.1 µM in the assay on SK-MEL-28 melanoma; 18.7 µM in the assay with T-47D breast; 12.2 µM in the assay on 786-0 renal. Further, the TGI in the assay on HOP-62 NSCLC is 3.03 µM; in the assay with BT-549 breast, 3.59 µM; in the assay with OVCAR-5 ovarian, 4.69 µM; with HL-60(TB) leukemia it was 6.69 µM; with SF-539 CNS it was 3.75 µM; in the assay with NCI-H226 lung it was 4.44 µM. The TGI is 3.16 µM in the assay on LOX IMVI melanoma and 6.18 µM in the assay on IGROV1 ovarian.
On to `CN(C)C(=S)C(Cl)(c1ccccc1)c1ccccc1`, for which the TGI with OVCAR-8 ovarian, in the assay with SW-620 colon, with NCI/ADR-RES ovarian, in the assay on K-562 leukemia, in the assay with MALME-3M melanoma and in the assay on OVCAR-3 ovarian was over 100 µM throughout. The TGI was over 100 µM in the assay with MOLT-4 leukemia; over 100 µM in the assay with HOP-92 NSCLC; 66.8 µM in the assay on SK-MEL-2 melanoma; over 100 µM in the assay with SK-MEL-28 melanoma; 61.7 µM in the assay with T-47D breast; over 100 µM in the assay on 786-0 renal. The TGI was over 100 µM in the assay with HOP-62 NSCLC; over 100 µM with BT-549 breast; over 100 µM in the assay on OVCAR-5 ovarian; 71.6 µM in the assay with HL-60(TB) leukemia; over 100 µM with SF-539 CNS; over 100 µM in the assay on NCI-H226 lung. For the same compound, the TGI with LOX IMVI melanoma and with IGROV1 ovarian was over 100 µM in each case.
For the compound `CN(C)CCCNC(=O)c1cc(NS(=O)(=O)c2ccc3c(c2)C(=O)c2ccccc2C3=O)cn1C`, the TGI with OVCAR-8 ovarian is over 100 µM; in the assay with SW-620 colon it was over 100 µM; with NCI/ADR-RES ovarian it was over 100 µM; in the assay on K-562 leukemia, over 100 µM; in the assay on MALME-3M melanoma, 18.7 µM; in the assay with OVCAR-3 ovarian, over 100 µM. Moreover, the TGI with MOLT-4 leukemia was over 100 µM; with HOP-92 NSCLC, over 100 µM; in the assay with SK-MEL-2 melanoma it was over 100 µM; with SK-MEL-28 melanoma, 50.8 µM; in the assay on T-47D breast, over 100 µM; with 786-0 renal it was 77.3 µM. For the same compound, the TGI was over 100 µM in the assay on HOP-62 NSCLC; 53.9 µM with BT-549 breast; over 100 µM with OVCAR-5 ovarian; 62.3 µM with HL-60(TB) leukemia; 75.6 µM in the assay with SF-539 CNS; 42.5 µM in the assay with NCI-H226 lung. Besides, the values for the TGI in the assay with LOX IMVI melanoma and with IGROV1 ovarian were 39.6 µM and 75.1 µM, respectively.
In the case of `COc1ccc(CNc2nc(NCc3ccc(OC)cc3)nc(NC3CCCC3)n2)cc1`, the TGI in the assay on OVCAR-8 ovarian is 20 µM; with SW-620 colon it was over 100 µM; with NCI/ADR-RES ovarian, 13.4 µM; in the assay with K-562 leukemia, over 24.7 µM; with MALME-3M melanoma, over 100 µM; in the assay on OVCAR-3 ovarian it was over 23 µM. The TGI is over 100 µM in the assay on MOLT-4 leukemia; over 100 µM in the assay with HOP-92 NSCLC; over 100 µM in the assay with SK-MEL-2 melanoma; over 100 µM with SK-MEL-28 melanoma; over 100 µM in the assay with T-47D breast; over 68.5 µM with 786-0 renal. The TGI with HOP-62 NSCLC was over 100 µM; with BT-549 breast, over 31.8 µM; with OVCAR-5 ovarian, over 44.7 µM; with HL-60(TB) leukemia, over 28.3 µM; in the assay with SF-539 CNS, 11.4 µM; in the assay on NCI-H226 lung, over 55.8 µM. Further, the TGI is 76.9 µM with LOX IMVI melanoma and over 33.7 µM in the assay with IGROV1 ovarian.
